Assay results reported in patent US20260184707A1, “PHARMACEUTICAL COMPOUNDS FOR THE TREATMENT OF COMPLEMENT MEDIATED DISORDERS” (ALEXION PHARMACEUTICALS, INC., priority 2022, published 2026).

Biological target: T1, Human complement C1s enzyme (Homo sapiens, UniProt P09871)
T1 construct: purified from human serum, Complement Technology, Inc; purchased Complement Technology, Inc; host or cells: human serum (plasma-derived native protein)
T1 sequence (P09871 438-688 limits assumed): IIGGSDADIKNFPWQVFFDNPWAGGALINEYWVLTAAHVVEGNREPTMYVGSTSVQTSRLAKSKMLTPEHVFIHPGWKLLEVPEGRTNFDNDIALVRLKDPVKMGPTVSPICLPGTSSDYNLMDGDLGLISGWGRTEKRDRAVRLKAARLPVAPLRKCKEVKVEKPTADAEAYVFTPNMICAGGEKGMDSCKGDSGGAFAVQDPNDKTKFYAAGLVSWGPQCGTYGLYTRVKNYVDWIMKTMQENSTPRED
T1 sequence (P09871 16-437 partner limits assumed): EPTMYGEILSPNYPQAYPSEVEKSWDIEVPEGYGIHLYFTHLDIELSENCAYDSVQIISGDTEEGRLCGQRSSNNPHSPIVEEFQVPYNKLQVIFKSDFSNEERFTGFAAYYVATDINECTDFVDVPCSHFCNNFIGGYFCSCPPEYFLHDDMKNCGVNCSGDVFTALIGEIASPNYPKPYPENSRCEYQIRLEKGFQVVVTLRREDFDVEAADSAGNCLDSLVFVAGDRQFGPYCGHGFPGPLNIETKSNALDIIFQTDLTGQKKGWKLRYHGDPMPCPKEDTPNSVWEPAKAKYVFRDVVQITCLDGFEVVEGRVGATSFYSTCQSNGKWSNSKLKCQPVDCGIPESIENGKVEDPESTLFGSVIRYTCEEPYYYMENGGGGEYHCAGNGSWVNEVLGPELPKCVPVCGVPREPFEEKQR
Assay: Human C1s enzyme assay
Type: biochemical
Settings: human complement C1s enzyme 1.16 nM, substrate Z-L-Lys-SBzl, A405; read-out: IC50 (Stars)
In short: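 Thioesterase activity followed colorimetrically (DTNB, A405, 30-s reads) using 100 μM Z-L-Lys-SBzl substrate. Enzyme, human serum-derived C1s at 1.16 nM final, was incubated with test compound for 5 min, room temperature, pH 7.5 Tris buffer with 1 M NaCl. Rate-versus-concentration data fitted by nonlinear regression for IC50.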

| SMILES | IC50 |
| --- | --- |
| C[C@@H](Nc1cnc(-c2cccc(Cl)c2)n(CC(=O)NCc2cc3cnccc3[nH]2)c1=O)c1ccc2oc3ccccc3c2c1 [Compound 293, (R)-N-((1H-pyrrolo[3,2-c]pyr-idin-2-yl)methyl)-2-(2-(3-chlorophenyl)-5-((1-(dibenzo [b,d]furan-2-yl)ethyl)amino)-6-oxopyrimidin-1(6H)-yl)acet-amide] | < 100 nM |
| C[C@@H](Nc1cnc(-c2ccccc2)n(CC(=O)N[C@H](C)c2cc3cnccc3[nH]2)c1=O)c1ccc2oc3ccccc3c2c1 [Compound 294, N-((R)-1-(1H-pyrrolo[3,2-c]pyridin-2-yl)ethyl)-2-(5-(((R)-1-(dibenzo[b,d]furan-2-l)ethyl)-amino)-6-oxo-2-phenylpyrimi-din-1(6H)-yl)acetamide] | 100 to 1000 nM |
| C[C@H](Nc1cnc(N2CCOCC2)n(CC(=O)NCc2cc3cnccc3[nH]2)c1=O)c1ccc2oc3ccccc3c2c1 [Compound 295, (S)-N-((1H-pyrrolo[3,2-c]pyr-idin-2-yl)methyl)-2-(5-((1-(dibenzo[b,d]furan-2-yl)ethyl)-amino)-2-morpholino-6-oxo-pyrimidin-1(6H)-yl)acetamide] | < 100 nM |
| C[C@H](Nc1cnc(-c2ccc(S(F)(F)(F)(F)F)cc2)n(CC(=O)NCc2cc3cnccc3[nH]2)c1=O)c1ccc2oc3ccccc3c2c1 [Compound 296, (S)-N-((1H-pyrrolo[3,2-c]pyridin-2-yl)methyl)-2-(5-((1-(dibenzo[b,d]furan-2-yl)ethyl)-amino)-6-oxo-2-(4-(penta-fluoro-lambda6-sulfaneyl)-phenyl)pyrimidin-1(6H)-yl)-acetamide] | < 100 nM |
| O=C(Cn1c(-c2ccc(S(F)(F)(F)(F)F)cc2)ncc(NCc2ccc3oc4ccccc4c3c2)c1=O)NCc1cc2cnccc2[nH]1 [Compound 297, N-((1H-pyrrolo[3,2-c]pyridin-2-yl)methyl)-2-(5-((dibenzo [b,d]furan-2-ylmethyl)amino)-6-oxo-2-(4-(pentafluoro-lambda6-sulfaneyl)phenyl)pyr-imidin-1(6H)-yl)acetamide] | < 100 nM |
| O=C(Cn1c(-c2ccc(S(F)(F)(F)(F)F)cc2)ncc(NCc2ccc(-c3ccccc3)cc2)c1=O)NCc1cc2cnccc2[nH]1 [Compound 298, N-((1H-pyrrolo[3,2-c]pyridin-2-yl)methyl)-2-(5-(([1,1′-biphenyl]-4-ylmethyl)amino)-6-oxo-2-(4-(pentafluoro-lambda6-sulfaneyl)phenyl)pyr-imidin-1(6H)-yl)acetamide] | < 100 nM |
| C[C@H](Nc1nccn(CC(=O)NCc2cc3cnccc3[nH]2)c1=O)c1ccc2oc3ccccc3c2c1 [Compound 299, (S)—N-((1H-pyrrolo[3,2-c]pyridine-2-yl)methyl)-2-(3-((1-(dibenzo[b,d]furan-2-yl)ethyl)amino)-2-oxopyrazin-1(2H)-yl)acetamide] | < 100 nM |
| C[C@H](Nc1cnc(N2CCn3c(nnc3C(F)(F)F)C2)n(CC(=O)NCc2cc3cnccc3[nH]2)c1=O)c1ccc2oc3ccccc3c2c1 [Compound 300, (S)—N-((1H-pyrrolo[3,2-c]pyridine-2-yl)methyl)-2-(5-((1-(dibenzo[b,d]furan-2-yl)ethyl)amino)-6-oxo-2-(3-(trifluoromethyl)-5,6-dihydro-[1,2,4]triazolo[4,3-a]pyrazin-7(8H)-yl)pyrimidin-1(6H)-yl)acetamide] | < 100 nM |
| O=C(Cn1c(N2CCn3c(nnc3C(F)(F)F)C2)ncc(NCCCc2ccccc2)c1=O)NCc1cc2cnccc2[nH]1 [Compound 301, N-((1H-pyrrolo[3,2-c]pyridin-2-yl)methyl)-2-(6-oxo-5-((3-phenylpropyl)amino)-2-(3-(trifluoromethyl)-5,6-dihydro-[1,2,4]triazolo[4,3-a]pyrazin-7(8H)-yl)pyrimidin-1(6H)-yl)-acetamide] | < 100 nM |
| N#Cc1c(NCCCc2ccccc2)ccc(-c2ccccc2)c1CC(=O)NCc1cc2cnccc2[nH]1 [Compound 302, N-((1H-pyrrolo[3,2-c]pyridine-2-yl)methyl)-2-(3-cyano-4-((3-phenylpropyl)amino)-[1,1′-biphenyl]-2-yl)acetamide] | < 100 nM |
| O=C(Cn1c(-c2ccccc2)ncc(NCC2CCC(c3ccccc3)CC2)c1=O)NCc1cc2cnccc2[nH]1 (stereo not shown) [Compound 303, N-((1H-pyrrolo[3,2-c]pyridine-2-yl)methyl)-2-(6-oxo-2-phenyl-5-(((4-phenylcyclohexyl)methyl)amino)pyrimidin-1(6H)-yl)acetamide] | < 100 nM |
| C[C@@H]1CN(c2ncc(N[C@H](C)c3ccc4oc5ccccc5c4c3)c(=O)n2CC(=O)NCc2cc3cnccc3[nH]2)CCO1 [Compound 304, N-((1H-pyrrolo[3,2-c]pyridin-2-yl)methyl)-2-(5-(((R)-1-(dibenzo[b,d]furan-2-yl)ethyl)-amino)-2-((R)-2-methylmorph-olino)-6-oxopyrimidin-1(6H)-yl)acetamide] | 100 to 1000 nM |
| C[C@@H]1CN(c2ncc(N[C@H](C)c3ccc4oc5ccccc5c4c3)c(=O)n2CC(=O)NCc2cc3cnccc3[nH]2)C[C@H](C)O1 [Compound 305, N-((1H-pyrrolo[3,2-c]pyridin-2-yl)methyl)-2-(5-(((R)-1-(dibenzo[b,d]furan-2-yl)ethyl)-amino)-2-((2S,6R)-2,6-dimeth-ylmorpholino)-6-oxopyrimidin-1(6H)-yl)acetamide] | 100 to 1000 nM |
| C[C@@H](Nc1cnc(N2C3CCC2COC3)n(CC(=O)NCc2cc3cnccc3[nH]2)c1=O)c1ccc2oc3ccccc3c2c1 [Compound 306, N-((1H-pyrrolo[3,2-c]pyridin-2-yl)methyl)-2-(2-(3-oxa-8-azabicyclo[3.2.1]octan-8-yl)-5-(((R)-1-(dibenzo[b,d]furan-2-yl)ethyl)amino)-6-oxopyrimi-din-1(6H)-yl)acetamide] | 100 to 1000 nM |
| C[C@@H](Nc1cnc(-c2ccccc2)n(CC(=O)NCc2cc3cnccc3[nH]2)c1=O)c1ccc(-c2ccccc2F)cc1 [Compound 307, (R)-N-((1H-pyrrolo[3,2-c]pyridin-2-yl)methyl)-2-(5-((1-(2′-fluoro-[1,1′-biphenyl]-4-yl)ethyl)amino)-6-oxo-2-phen-ylpyrimidin-1(6H)-yl)acet-amide] | < 100 nM |
| C[C@@H](Nc1cnc(-c2ccccc2F)n(CC(=O)NCc2cc3cnccc3[nH]2)c1=O)c1ccc(-c2ccccc2F)cc1 [Compound 308, (R)—N-((1H-pyrrolo[3,2-c]pyridine-2-yl)methyl)-2-(5-((1-(2′-fluoro-[1,1′-biphenyl]-4-yl)ethyl)amino)-2-(2-fluorophenyl)-6-oxopyrimidin-1(6H)-yl)acetamide] | < 100 nM |
| C[C@H](Nc1cnc(-c2ccccc2F)n(CC(=O)NCc2cc3cnccc3[nH]2)c1=O)c1ccc2c(c1)oc1ccccc12 [Compound 309, (S)-N-((1H-pyrrolo[3,2-c]pyridin-2-yl)methyl)-2-(5-((1-(dibenzo[b,d]furan-3-yl)ethyl)-amino)-2-(2-fluorophenyl)-6-oxopyrimidin-1(6H)-yl)acet-amide] | < 100 nM |
| C[C@@H](Nc1cncn(CC(=O)NCc2cc3cnccc3[nH]2)c1=O)c1ccc2oc3ccccc3c2c1 [Compound 310, (R)-N-((1H-pyrrolo[3,2-c]pyridin-2-yl)methyl)-2-(5-((1-(dibenzo[b,d]furan-2-yl)ethyl)-amino)-6-oxopyrimidin-1(6H)-yl)acetamide] | 100 to 1000 nM |
| CC(C)(Nc1cnc(-c2ccccc2F)n(CC(=O)NCc2cc3cnccc3[nH]2)c1=O)c1ccc2oc3ccccc3c2c1 [Compound 311, N-((1H-pyrrolo[3,2-c]pyridine-2-yl)methyl)-2-(5-((2-(dibenzo[b,d]furan-2-yl)propan-2-yl)amino)-2-(2-fluorophenyl)-6-oxopyrimidin-1(6H)-yl)acetamide] | 100 to 1000 nM |
| O=C(Cn1c(-c2cn[nH]c2)ncc(NCc2ccc3oc4ccccc4c3c2)c1=O)NCc1cc2cnccc2[nH]1 [Compound 312, N-((1H-pyrrolo[3,2-c]pyridine-2-yl)methyl)-2-(5-((dibenzo[b,d]furan-2-ylmethyl)amino)-6-oxo-2-(1H-pyrazol-4-yl)pyrimidin-1(6H)-yl)acetamide] | < 100 nM |
| C[C@@H](Nc1cnc(N2CCn3c(nnc3C(F)(F)F)C2)n(CC(=O)NCc2cc3cnccc3[nH]2)c1=O)c1ccc2oc3ccccc3c2c1 [Compound 313, (R)-N-((1H-pyrrolo[3,2-c]pyridin-2-yl)methyl)-2-(5-((1-(dibenzo[b,d]furan-2-yl)ethyl)-amino)-6-oxo-2-(3-(trifluoro-methyl)-5,6-dihydro-[1,2,4]triazolo[4,3-a]pyrazin-7(8H)-yl)pyrimidin-1(6H)-yl)acet-amide] | 100 to 1000 nM |
| C[C@H](Nc1ncc(-c2ccccc2F)n(CC(=O)NCc2cc3cnccc3[nH]2)c1=O)c1ccc2oc3ccccc3c2c1 [Compound 314, (S)—N-((1H-pyrrolo[3,2-c]pyridine-2-yl)methyl)-2-(3-((1-(dibenzo[b,d]furan-2-yl)ethyl)amino)-6-(2-fluorophenyl)-2-oxopyrazin-1(2H)-yl)acetamide] | < 100 nM |
